# Assay results as given in PMC5427923, “A novel CCR2 antagonist inhibits atherogenesis in apoE deficient mice by achieving high receptor occupancy” (Scientific Reports, 2017).
# Entries after “also recorded” stand apart in the source; their conditions may differ.
# Tests used:
# [1] = system: circulating CCR2+ monocytes; assay: Circulating blood cells (flow cytometry, hematology analyzer) in 15a treated apoE−/− mice; assay type: in vivo, mouse
# Protocol: (§1) To determine the effect of the CCR2 antagonist on atherosclerotic lesion development, mice were fed a Western type diet, containing 0.25% cholesterol and 15% cocoabutter (SDS, Sussex, UK) throughout the experiment starting two week before surgery. Carotid artery plaque formation was induced by perivascular collar placement as described previously[46] and from the time of surgery, the mice received daily intraperitoneal injections containing 15a (5 mg/kg/day) or vehicle control (n = 9–10 per group). During the experiment, total body weight and weight gain were measured. Serum total cholesterol levels were determined using an enzymatic colorimetric assay according to manufacturer’s protocol (Roche Diagnostics). Precipath (standardized serum; Boehringer Mannheim, Germany) was used as an internal standard. Plasma cytokine levels were measured by ELISA according to manufacturer’s protocol (BD Biosciences). Blood was collected weekly via tail cut. Total cell count and cellular differentiation patterns in blood were analyzed using an automated XT-2000iV veterinary hematology analyzer (Sysmex Europe GMBH, Norderstedt, Germany). After erythrocyte lysis, blood leukocyte suspensions were stained for surface markers, after which their expression was determined by FACS analysis (FACS Canto, BD Biosciences). After 4 weeks of lesion development, the animals were anaesthetized and blood was collected. After in situ perfusion through the left cardiac chamber, the carotid arteries and hearts were harvested.
# apoE−/− mice = assay: Atherosclerotic lesion development in Western-type diet fed apoE−/− mice (carotid collar, aortic root); assay type: in vivo, mouse
# Description: Male apoE^−/− mice (10–12 weeks old), obtained from the local animal breeding facility (Gorlaeus Laboratories, Leiden, The Netherlands), were fed a Western type diet, containing 0.25% cholesterol and 15% cocoabutter (SDS, Sussex, UK).
# as §1
# Carotid artery cryosections of 5 µm thick were prepared, which were stained with hematoxylin-eosin to determine plaque size and necrotic core size. Morphometric analysis was performed on sections throughout the atherosclerotic lesion (100 µm apart) and at the site of maximal stenosis using Leica Qwin image analysis software. The relative necrotic area was defined as the a-cellular, debris-rich plaque area as percentage of total plaque area, and also quantified using Leica QWin software.
# The hearts were dissected just below the atria and sectioned perpendicular to the axis of the aorta, starting within the heart and working in the direction of the aortic arch. Once the aortic root was identified by the appearance of aortic valve leaflets, 10 µm sections were collected. Mean lesion area (in µm^2) of the aortic root was calculated from six Oil-Red-O stained sections in distal direction starting at the point where all three aortic valve leaflets first appeared.
# Macrophage content of the lesions in carotid arteries and aortic roots was stained using a rat monoclonal MOMA2 antibody (1:1000, Serotec, Kidlington, Oxford, UK). Macrophage positive areas were analyzed using computer-assisted colour-gated analysis, and related to the total intimal surface area (Leica QWin). Liver cryosections of 10 µm thick were prepared and subsequently stained with hematoxylin-eosin to analyze liver morphology, which was assessed using a Leica DMRE microscope (Leica Ltd., Cambridge, England).
# [2] = 4 weeks of treatment, 18 h after last injection
structure (smiles),measurement,setting,value
"CC(C)[C@]1(C(=O)N2CCc3ccc(C(F)(F)F)cc3C2)CC[C@@H](N[C@@H]2CCc3cc(Br)ccc32)C1 [15a, ((1S,3R)-3-(((R)-5-bromo-2,3-dihydro-1H-inden-1-yl)amino)-1-isopropylcyclopentyl)(7-(trifluoromethyl)-3,4-dihydroisoquinolin-2(1H)-yl)methanone]",number of circulating CCR2+ monocytes,"[1]; 5 mg/kg/day i.p., 4 weeks, 18 hour after the last injection, controls 14.9 ± 3.2",4.5 ± 1.0 *10^3 cells/mL
same,percentage of circulating CCR2+ monocytes (CD11b+Ly6Glow cells),"[1]; 5 mg/kg/day i.p., two weeks of treatment, 2 hours after injection, controls 8.7 ± 1.2%",1.8 ± 0.2%
same,increase in the amount of CD11b+Ly6ClowCX3CR1+ monocytes,[1]; [2],1.5 fold
same,ratio of patrolling CD11b+Ly6ClowCX3CR1+ versus inflammatory CD11b+Ly6ChighCCR2+ monocytes in blood,[1]; [2],increased
same,reduction in circulating CCR2+ monocyte numbers,[1]; at 18 hours after treatment,> 60%
same,circulating total white blood cell (WBCs) count,[1]; at the time of sacrifice,No differences
same,total lymphocyte numbers,[1]; at the time of sacrifice,No differences; also recorded: remained unaffected
same,total neutrophil numbers,[1]; at the time of sacrifice,No differences; also recorded: remained unaffected
same,total number of (circulating) monocytes,[1]; at the time of sacrifice,significantly reduced
same,bone marrow monocyte subpopulations,[1]; data not shown,did not observe any effects
same,"number of neutrophils, CD19+ B cells, CD4+ or CD8+ T cells in blood or spleen","[1]; flow cytometry, 18 hour after the last injection, data not shown",did not affect
same,splenic or circulating Tregs,"[1]; flow cytometry, data not shown",nor did we detect any effects
same,percentage of circulating CCR5+ monocytes,[1]; treated and untreated mice,did not observe any change
same,atherosclerotic plaque size in the carotid artery at the site of maximal stenosis,"apoE−/− mice; 5 mg/kg/day i.p., 4 weeks, controls 64.4 ± 11.8",17.6 ± 4.1 *10^3 µm^2
same,relative necrotic area,"apoE−/− mice; carotid artery plaques, controls 35.3 ± 8.2%",7.6 ± 4.5%
same,plaque volume throughout the carotid arteries,apoE−/− mice; controls 1.75 ± 0.33,0.46 ± 0.13 *10^7 µm^3
same,aortic root plaque volume,apoE−/− mice; controls 11.8 ± 1.2,7.4 ± 0.7 *10^7 µm^3
same,macrophage positive area of the carotid artery plaques (MOMA2),apoE−/− mice; controls 22.3 ± 4.1,6.2 ± 2.5 *10^3 µm^2
same,"relative macrophage content (corrected for lesion size), carotid artery",apoE−/− mice; controls 46 ± 4%,25 ± 8%
same,"macrophage positive area, aortic root",apoE−/− mice; controls 92.0 ± 15.6,37.2 ± 8.7 *10^3 µm^2
same,aortic root average plaque size,apoE−/− mice; controls 215.9 ± 24.6,157.0 ± 15.7 *10^3 µm^2
same,reduction in carotid artery lesion size,"apoE−/− mice; mouse, in vivo",more than 70%
same,change in carotid artery plaque size versus control,apoE−/− mice; site of maximal stenosis,−73%
